The values below come from patent US20240299385A1 (ReWind Therapeutics NV, priority 2021, published 2024).

Usually IC50 stands for the midpoint of a concentration-inhibition curve.

Structures are written as SMILES.

The target of the assay is T1, human GPR17 receptor (Homo sapiens, UniProt Q13304).
T1 construct: host or cells: HEK-293
T1 sequence (Q13304 whole entry): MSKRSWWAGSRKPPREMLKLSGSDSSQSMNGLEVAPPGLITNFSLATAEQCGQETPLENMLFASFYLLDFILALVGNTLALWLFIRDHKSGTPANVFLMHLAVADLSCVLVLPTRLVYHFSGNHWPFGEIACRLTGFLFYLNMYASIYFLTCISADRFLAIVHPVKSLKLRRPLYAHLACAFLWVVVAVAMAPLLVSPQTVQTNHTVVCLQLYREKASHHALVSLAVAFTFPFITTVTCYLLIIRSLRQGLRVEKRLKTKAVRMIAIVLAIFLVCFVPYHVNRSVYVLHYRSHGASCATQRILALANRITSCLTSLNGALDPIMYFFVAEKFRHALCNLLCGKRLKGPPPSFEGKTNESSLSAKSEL
The assay can be described thus: Calcium mobilization functional assay (Fluo-8, FLIPR TETRA) in HEK-293 hGPR17 (Gα-q assay). It is filed as cell-based. To be noted: antagonism of MDL29,951 (~EC80) induced Ca2+ signal; cell line (HEK-293 hGPR17 or HEK-293 Suchi5 hGPR17) not given. A digest of the protocol: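 Fluo-8-loaded HEK-293 hGPR17 cells (60 min dye loading, room temperature) were preincubated with compound for twenty minutes, then challenged with agonist MDL29,951 at ~EC80, 500 nM. Intracellular calcium release via Gα-q was recorded as FLIPR fluorescence for a further 2 minutes; compounds tested in duplicate.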
On the technique in general: Calcium flux is commonly read through the fluorescence of an indicator in the cells.
Take `O=S(=O)(Nc1cc(F)c(C(F)(F)F)cc1F)c1c[nH]c(-c2ccccc2)c1F` [Cpd 626, N-[2,5-difluoro-4-(trifluoromethyl)phenyl]-4-fluoro-5-phenyl-1H-pyrrole-3-sulfonamide]: the IC50 was less than 500 nM. In the case of `O=S(=O)(Nc1cc(F)c(C(F)(F)F)cc1F)c1cc(-c2ccccc2)[nH]c1F` [Cpd 627, N-[2,5-difluoro-4-(trifluoromethyl)phenyl]-2-fluoro-5-phenyl-1H-pyrrole-3-sulfonamide] it was 500 to 5000 nM. The result for `O=S(=O)(Nc1cc(F)c(OC(F)F)cc1F)c1c[nH]c(-c2cncs2)c1` [Cpd 628, N-[4-(difluoromethoxy)-2,5-difluorophenyl]-5-(1,3-thiazol-5-yl)-1H-pyrrole-3-sulfonamide] reads less than 500 nM; that for `O=S(=O)(Nc1cc(F)c(OC(F)F)cc1F)c1c[nH]c(-c2cscn2)c1` [Cpd 629, N-[4-(difluoromethoxy)-2,5-difluorophenyl]-5-(1,3-thiazol-4-yl)-1H-pyrrole-3-sulfonamide], less than 500 nM. For the compound `O=S(=O)(Nc1ncc(C(F)(F)F)s1)c1c[nH]c(-c2ccccc2)c1` [Cpd 630, 5-phenyl-N-[5-(trifluoromethyl)-1,3-thiazol-2-yl]-1H-pyrrole-3-sulfonamide], the IC50 fell in the range of 500 to 5000 nM. In the case of `N#Cc1cnc(NS(=O)(=O)c2c[nH]c(-c3ccccc3)c2)s1` [Cpd 631, N-(5-cyano-1,3-thiazol-2-yl)-5-phenyl-1H-pyrrole-3-sulfonamide] it was 500 to 5000 nM.

For `N#CCOc1cc(F)c(NS(=O)(=O)c2c[nH]c(-c3ccccc3)c2F)cc1F` [Cpd 632, N-[4-(cyanomethoxy)-2,5-difluorophenyl]-4-fluoro-5-phenyl-1H-pyrrole-3-sulfonamide], the half-inhibitory concentration (IC50) is less than 500 nM. In the case of `COc1csc(-c2cc(S(=O)(=O)Nc3cc(F)c(OC(F)F)cc3F)c[nH]2)n1` [Cpd 633, N-[4-(difluoromethoxy)-2,5-difluorophenyl]-5-(4-methoxy-1,3-thiazol-2-yl)-1H-pyrrole-3-sulfonamide] it was less than 500 nM. As for `Cc1csc(-c2cc(S(=O)(=O)Nc3cc(F)c(OC(F)F)cc3F)c[nH]2)n1` [Cpd 634, N-[4-(difluoromethoxy)-2,5-difluorophenyl]-5-(4-methyl-1,3-thiazol-2-yl)-1H-pyrrole-3-sulfonamide], the IC50 is less than 500 nM. Turning to `O=S(=O)(Nc1cc(F)c(OC(F)F)cc1F)c1c[nH]c(-c2ccsn2)c1` [Cpd 635, N-[4-(difluoromethoxy)-2,5-difluorophenyl]-5-(1,2-thiazol-3-yl)-1H-pyrrole-3-sulfonamide], the IC50 was less than 500 nM. For `O=S(=O)(Nc1cc(F)c(OC(F)F)cc1F)c1c[nH]c(-c2ncco2)c1` [Cpd 636, N-[4-(difluoromethoxy)-2,5-difluorophenyl]-5-(1,3-oxazol-2-yl)-1H-pyrrole-3-sulfonamide], the IC50 is less than 500 nM. In the case of `O=S(=O)(Nc1cc(F)c(OC(F)F)cc1F)c1c[nH]c(-c2ncc(C(F)(F)F)s2)c1` [Cpd 637, N-[4-(difluoromethoxy)-2,5-difluorophenyl]-5-[5-(trifluoromethyl)-1,3-thiazol-2-yl]-1H-pyrrole-3-sulfonamide] it was 500 to 5000 nM; in that of `O=S(=O)(Nc1cc(F)c(OC(F)F)cc1F)c1c[nH]c(-c2ccns2)c1` [Cpd 638, N-[4-(difluoromethoxy)-2,5-difluorophenyl]-5-(1,2-thiazol-5-yl)-1H-pyrrole-3-sulfonamide], less than 500 nM.

In the case of `O=S(=O)(Nc1cc(F)c(OC(F)F)cc1F)c1c[nH]c(-c2cnsc2)c1` [Cpd 639, N-[4-(difluoromethoxy)-2,5-difluorophenyl]-5-(1,2-thiazol-4-yl)-1H-pyrrole-3-sulfonamide], the IC50 is less than 500 nM.

On to `N#Cc1cc(F)c(NS(=O)(=O)c2c[nH]c(-c3ccoc3)c2)cc1F` [Cpd 640, N-(4-cyano-2,5-difluorophenyl)-5-(furan-3-yl)-1H-pyrrole-3-sulfonamide], for which the IC50 is less than 500 nM.

Consider `N#Cc1ccc(NS(=O)(=O)c2c[nH]c(-c3cncs3)c2)c(F)c1` [Cpd 641, N-(4-cyano-2-fluorophenyl)-5-(1,3-thiazol-5-yl)-1H-pyrrole-3-sulfonamide], for which the IC50 is less than 500 nM.

As to `N#Cc1cc(F)c(NS(=O)(=O)c2c[nH]c(-c3cscn3)c2)cc1F` [Cpd 642, N-(4-cyano-2,5-difluorophenyl)-5-(1,3-thiazol-4-yl)-1H-pyrrole-3-sulfonamide], the IC50 is less than 500 nM. Take `[2H]C([2H])(c1cccc(F)c1)c1c[nH]cc1S(=O)(=O)Nc1cc(F)c(C#N)cc1F` [Cpd 643, N-(4-cyano-2,5-difluorophenyl)-4-((3-fluorophenyl)methyl-d2)-1H-pyrrole-3-sulfonamide]: the IC50 is less than 500 nM. Consider `N#Cc1sc(NS(=O)(=O)c2c[nH]c(-c3ccccc3)c2)cc1F` [Cpd 644, N-(5-cyano-4-fluorothiophen-2-yl)-5-phenyl-1H-pyrrole-3-sulfonamide], for which the 50% inhibitory concentration (IC50) lay within 5000 to 50000 nM. As to `N#Cc1ccc(F)c(-c2cc(S(=O)(=O)Nc3cc(F)c(C#N)cc3F)c[nH]2)c1` [Cpd 645, N-(4-cyano-2,5-difluorophenyl)-5-(5-cyano-2-fluorophenyl)-1H-pyrrole-3-sulfonamide], the half-maximal inhibitory concentration (IC50) was less than 500 nM. Regarding `N#Cc1cc(F)c(NS(=O)(=O)c2c[nH]c(-c3ccsn3)c2)cc1F` [Cpd 646, N-(4-cyano-2,5-difluorophenyl)-5-(1,2-thiazol-3-yl)-1H-pyrrole-3-sulfonamide], the IC50 was less than 500 nM. Regarding `N#Cc1cc(F)c(NS(=O)(=O)c2c[nH]c(-c3cncs3)c2)cc1F` [Cpd 647, N-(4-cyano-2,5-difluorophenyl)-5-(1,3-thiazol-5-yl)-1H-pyrrole-3-sulfonamide], the IC50 is less than 500 nM. Take `N#Cc1cc(F)c(NS(=O)(=O)c2c[nH]c(-c3ncc(Cl)s3)c2)cc1F` [Cpd 648, 5-(5-chloro-1,3-thiazol-2-yl)-N-(4-cyano-2,5-difluorophenyl)-1H-pyrrole-3-sulfonamide]: the IC50 was less than 500 nM. The result for `Cc1csc(-c2cc(S(=O)(=O)Nc3cc(F)c(C#N)cc3F)c[nH]2)n1` [Cpd 649, N-(4-cyano-2,5-difluorophenyl)-5-(4-methyl-1,3-thiazol-2-yl)-1H-pyrrole-3-sulfonamide] reads less than 500 nM; that for `N#Cc1ccc(F)c(-c2cc(S(=O)(=O)Nc3cc(F)c(OC(F)F)cc3F)c[nH]2)c1` [Cpd 650, 5-(5-cyano-2-fluorophenyl)-N-[4-(difluoromethoxy)-2,5-difluorophenyl]-1H-pyrrole-3-sulfonamide], less than 500 nM. In the case of `N#Cc1cc(F)c(NS(=O)(=O)c2c[nH]c(-c3coc4ccccc34)c2)cc1F` [Cpd 651, 5-(1-benzofuran-3-yl)-N-(4-cyano-2,5-difluorophenyl)-1H-pyrrole-3-sulfonamide] it was less than 500 nM. The result for `COc1c(F)cccc1-c1cc(S(=O)(=O)Nc2cc(F)c(C#N)cc2F)c[nH]1` [Cpd 652, N-(4-cyano-2,5-difluorophenyl)-5-(3-fluoro-2-methoxyphenyl)-1H-pyrrole-3-sulfonamide] reads less than 500 nM; that for `Cc1occc1-c1cc(S(=O)(=O)Nc2cc(F)c(C(F)(F)F)cc2F)c[nH]1` [Cpd 653, N-[2,5-difluoro-4-(trifluoromethyl)phenyl]-5-(2-methylfuran-3-yl)-1H-pyrrole-3-sulfonamide], less than 500 nM.
